# EP4122499A1, “FIBROBLAST ACTIVATION PROTEIN INHIBITORS AND USE THEREOF” (3B Pharmaceuticals GmbH, priority 2021, dated 2023)
# Key:
# Recombinant human DPP4 = molecular target: T1, Recombinant human DPP4 (Homo sapiens, UniProt P27487); assay: DPP4 protease activity assay; assay type: biochemical; conditions: 20 µM GP-AMC substrate; for IC50: read-out: pIC50 (DPP4) (converted)
# T1 construct: purchased R&D systems 9168-SE
# Protocol: (§1) The PREP activity assay was performed using the FACS buffer (PBS including 1% FBS, Sigma-Aldrich, Cat# D8537). […] The DPP4 activity assay was performed in DPP assay buffer (25 mM Tris, pH 8.0).
# (§2) Four parameter logistic (4PL) curve fitting and pIC50 calculations were performed using ActivityBase software.
# Human recombinant FAP [1] = molecular target: T2, Human recombinant FAP (Homo sapiens, UniProt Q12884); assay: FRET-based FAP protease activity assay (human); assay type: biochemical; design: purchased R&D systems 3715-SE; conditions: FRET-peptide substrate, 37°C; for IC50: read-out: pIC50 (Activity) (converted)
# T2 sequence (Q12884 1-760): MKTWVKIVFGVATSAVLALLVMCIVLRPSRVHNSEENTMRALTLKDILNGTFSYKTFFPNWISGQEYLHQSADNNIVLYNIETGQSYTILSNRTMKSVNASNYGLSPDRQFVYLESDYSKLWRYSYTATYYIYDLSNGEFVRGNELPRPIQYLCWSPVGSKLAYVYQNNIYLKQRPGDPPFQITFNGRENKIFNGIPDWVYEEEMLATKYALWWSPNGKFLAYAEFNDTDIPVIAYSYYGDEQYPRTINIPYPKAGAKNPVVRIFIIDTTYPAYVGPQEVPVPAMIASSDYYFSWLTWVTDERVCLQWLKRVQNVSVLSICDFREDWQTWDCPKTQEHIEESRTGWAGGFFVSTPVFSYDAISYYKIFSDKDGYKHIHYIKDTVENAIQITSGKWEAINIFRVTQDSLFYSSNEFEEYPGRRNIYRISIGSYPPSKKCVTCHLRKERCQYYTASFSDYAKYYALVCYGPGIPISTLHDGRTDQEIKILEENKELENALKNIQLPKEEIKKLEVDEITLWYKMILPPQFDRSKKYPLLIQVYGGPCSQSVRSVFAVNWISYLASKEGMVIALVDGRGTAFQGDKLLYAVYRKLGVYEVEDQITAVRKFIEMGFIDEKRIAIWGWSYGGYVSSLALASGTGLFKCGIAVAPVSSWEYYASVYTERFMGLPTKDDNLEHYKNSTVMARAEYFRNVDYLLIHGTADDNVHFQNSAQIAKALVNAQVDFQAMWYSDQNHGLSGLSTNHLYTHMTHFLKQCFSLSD
# Protocol: (§3) In order to determine the inhibitory activity a FRET-based FAP protease activity assay was established.
# 25 µL of a 30 µM substrate solution, diluted in assay buffer, was added. […] Four parameter logistic (4PL) curve fitting and pIC50 calculations were performed using ActivityBase software (IDBS).
# recombinant human PREP = molecular target: T3, recombinant human PREP (Homo sapiens, UniProt P48147); assay: PREP protease activity assay; assay type: biochemical; conditions: 50 µM Z-GP-AMC substrate
# T3 construct: purchased R&D systems 4308-SE
# T3 sequence (P48147 1-710): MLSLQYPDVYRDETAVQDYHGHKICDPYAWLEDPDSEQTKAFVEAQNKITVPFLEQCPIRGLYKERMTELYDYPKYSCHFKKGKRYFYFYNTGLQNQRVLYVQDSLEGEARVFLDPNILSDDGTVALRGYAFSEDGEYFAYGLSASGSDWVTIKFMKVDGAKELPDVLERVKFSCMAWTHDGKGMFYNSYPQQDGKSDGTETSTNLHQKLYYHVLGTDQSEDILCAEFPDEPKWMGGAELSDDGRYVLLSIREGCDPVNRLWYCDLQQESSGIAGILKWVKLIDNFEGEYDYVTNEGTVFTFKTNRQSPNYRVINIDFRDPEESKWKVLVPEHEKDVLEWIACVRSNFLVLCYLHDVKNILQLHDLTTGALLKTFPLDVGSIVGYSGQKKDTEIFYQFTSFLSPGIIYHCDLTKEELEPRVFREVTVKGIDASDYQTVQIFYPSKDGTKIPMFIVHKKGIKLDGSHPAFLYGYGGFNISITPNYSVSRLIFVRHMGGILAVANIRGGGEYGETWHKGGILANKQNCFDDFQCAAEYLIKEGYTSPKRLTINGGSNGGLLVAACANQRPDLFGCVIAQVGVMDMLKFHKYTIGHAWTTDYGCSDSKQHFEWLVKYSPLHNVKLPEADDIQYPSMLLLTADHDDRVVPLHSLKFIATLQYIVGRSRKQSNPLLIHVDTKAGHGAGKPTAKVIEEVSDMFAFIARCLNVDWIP
# Protocol: as §1, §2
# [2] = molecular target: T4, FAP-expressing human WI-38 fibroblasts (Homo sapiens, UniProt Q12884); assay: Competitive FACS binding assay (displacement of Cy5-labeled FAP inhibitor 3BP-2935); conditions: 3 nM Cy5-labeled 3BP-2935, 4°C, 1 hour
# T4 construct: FAP-expressing human WI-38 fibroblasts (ECACC 90020107) were cultured in EMEM; host or cells: WI-38 human fibroblasts
# T4 sequence (Q12884 1-760): T2 sequence (Q12884 1-760)
# Protocol: In order to determine binding of compounds according to the present invention to FAP-expressing cells, a competitive FACS binding assay was established.
# Cells were diluted in FACS buffer to a final concentration of 100.000 cells per ml and 200 µl of the cell suspension are transferred to a u-shaped non-binding 96-well plate (Greiner).
# Cell were washed twice with FACS buffer (see above) and resuspended in 200 µl FACS buffer. Cells were analyzed in an Attune NxT flow cytometer (Thermo Fisher Scientific). Median fluorescence intensities (Cy5 channel) was calculated by Attune NxT software and plotted against test compound concentrations. Four parameter logistic (4PL) curve fitting and pIC50 calculations were performed using ActivityBase software.
# Human recombinant FAP [3] = molecular target: T2, Human recombinant FAP; assay: Surface plasmon resonance assay (Biacore T200, single cycle kinetics); assay type: binding; conditions: SPR, 25°C
# Protocol: Surface plasmon resonance studies were performed using a Biacore™ T200 SPR system (Cytiva, formerly GE Healthcare). Briefly, polarized light is directed towards a gold-labeled sensor surface, and minimum intensity reflected light is detected. The angle of reflected light changes as molecules bind and dissociate. […] Test compounds are contacted with the loaded surface, and a real-time interaction profile with the FAP ligand is recorded in a sensorgram. In real-time, the association and dissociation of a binding interaction is measured, enabling calculation of association and dissociation rate constants and the corresponding affinity constants. Importantly, a background response is generated due to the difference in the refractive indices of the running and sample buffers, as well as unspecific binding of the test compounds to the flow cell surface. This background is measured and subtracted by running the sample on a control flow cell coated with the same density of capture antibody in the absence of immobilized FAP. Furthermore, baseline drift correction of the binding data is performed, which is caused by slow dissociation of the captured FAP from the immobilized antibody. This drift is measured by injecting running buffer through a flow cell with the antibody and FAP immobilized to the sensor surface.
# Biacore™ CM5 sensor chips were used. […] A 150 µL aliquot was transferred into plastic vials and placed into the sample rack of the Biacore™ T200 instrument. Amine Coupling Kit Reagent solutions were transferred into plastic vials and placed into the sample rack: 90 µL of 0.4 M 1-ethyl-3-(3-dimethylaminopropyl)carbodiimide (EDC), and 90 µL of 0.1 M N-hydroxysuccinimide (NHS). A 130 µL aliquot of 1 M ethanolamine-HCl, pH 8.5, was transferred into plastic vials and placed into the sample rack. The Biacore™ liquid system was set-up as follows: Separate bottles containing distilled water (1 L), Running Buffer (500 mL), as well as an empty bottle for waste were placed onto the buffer tray. A preinstalled program for immobilization was used, with an immobilization level of 7000 RU. Immobilization was performed at 25°C. The immobilization procedure of anti-FAP antibodies was performed, as described in the Table 5. Table 5: Immobilization protocol for anti-FAP antibodies used on the CM5 sensor chip.
# Human recombinant FAP was diluted in Running Buffer to a final concentration of 20 µg/mL. A 100 µL aliquot of human FAP-Working-Solution was transferred into plastic vials and placed into a sample rack. A 0.5 mM Compound-Stock-Solution was prepared by dissolving each compound in DMSO. For each test compound, Compound-Stock-Solutions were diluted in Running Buffer (HBST) at 500 nM and further diluted with HBST-DMSO Buffer (0.1% DMSO). SPR binding analyses for binary complexes were performed in SCK mode at 25°C. Following three SCK measurements, a baseline drift was assessed by injecting running buffer through a flow cell, with the antibody and FAP immobilized to the sensor surface. Table 6: Protocol for assessing the binding kinetics.
# For each test compound, SPR raw data in the form of resonance units (RU) were plotted as sensorgrams using the Biacore™ T200 control software. The signal from the blank sensorgram was subtracted from that of the test compound sensorgram (blank corrected). The blank corrected sensorgram was corrected for baseline drift by subtracting the sensorgram of a SCK run without the test compound (running buffer only). The association rate (kon), dissociation rate (koff), dissociation constant (KD), and t1/2 were calculated from Blank-normalized SPR data using the 1:1 Langmuir binding model from the Biacore™ T200 evaluation software. Raw data and fit results were imported as text files in IDBS. The pKD value (negative decadic logarithm of dissociation constant) was calculated in the IDBS excel template.
# Recombinant mouse FAP = molecular target: T5, Recombinant mouse FAP (Mus musculus, UniProt P97321); assay: FRET-based FAP protease activity assay (mouse); assay type: biochemical; conditions: FRET-peptide substrate, 37°C
# T5 construct: purchased R&D systems 8647-SE
# T5 sequence (P97321 1-761): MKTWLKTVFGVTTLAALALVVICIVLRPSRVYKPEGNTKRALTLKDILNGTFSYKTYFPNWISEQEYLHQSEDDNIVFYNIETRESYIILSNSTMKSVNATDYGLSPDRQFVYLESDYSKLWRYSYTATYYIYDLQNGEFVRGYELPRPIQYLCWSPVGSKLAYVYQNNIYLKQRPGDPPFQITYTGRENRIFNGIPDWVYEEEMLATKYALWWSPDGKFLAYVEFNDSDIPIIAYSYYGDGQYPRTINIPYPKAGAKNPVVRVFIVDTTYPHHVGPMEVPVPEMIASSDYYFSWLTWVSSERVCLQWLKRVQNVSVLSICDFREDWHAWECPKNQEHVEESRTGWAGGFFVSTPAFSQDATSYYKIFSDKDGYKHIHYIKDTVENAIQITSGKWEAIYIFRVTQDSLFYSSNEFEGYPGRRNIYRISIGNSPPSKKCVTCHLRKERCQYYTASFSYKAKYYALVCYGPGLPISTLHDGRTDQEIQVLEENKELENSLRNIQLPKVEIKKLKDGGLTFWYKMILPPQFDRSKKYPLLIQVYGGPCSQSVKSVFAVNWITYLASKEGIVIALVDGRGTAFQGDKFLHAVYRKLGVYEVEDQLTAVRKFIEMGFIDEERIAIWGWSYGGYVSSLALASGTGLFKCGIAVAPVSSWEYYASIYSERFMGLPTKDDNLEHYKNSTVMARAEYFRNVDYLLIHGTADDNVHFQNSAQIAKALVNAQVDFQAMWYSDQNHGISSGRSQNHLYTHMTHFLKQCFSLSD
# Protocol: as §3
# 25 µL of a 30 µM substrate solution, diluted in assay buffer, was added. […] Four parameter logistic (4PL) curve fitting and pIC50 calculations were performed using ActivityBase software.
# HEK-FAP cells = molecular target: T6, HEK-FAP cells (Homo sapiens, UniProt Q12884); assay: LigandTracer assay with 111In-labeled compounds; assay type: binding; conditions: 111In-labeled compound
# T6 construct: expressed in transfected cells; host or cells: HEK293
# T6 sequence (Q12884 1-760): T2 sequence (Q12884 1-760)
# Protocol: HEK293 cells (human embryonic kidney cells) were engineered to express the human FAP. […] Cell concentrations were adjusted to 3 x 10^5 mL^-1, and 3.000 µL of the suspension was dispensed into a poly-lysine-coated, clear cell dish (10cm). Approximately 24 hours after re-seeding, the medium was replaced by assay medium (Ham's medium with 20 mM HEPES) containing 1 % FCS. The dish was placed in the LigandTracer® device and a baseline measurement was obtained using the LigandTracer® Control software (version 2.4). […] To determine the dissociation rate (kd) the cells were washed and subsequently incubated with fresh assay medium for several hours. […] Table 14 Results of the LigandTracer® assay
# T1 sequence (P27487 whole entry): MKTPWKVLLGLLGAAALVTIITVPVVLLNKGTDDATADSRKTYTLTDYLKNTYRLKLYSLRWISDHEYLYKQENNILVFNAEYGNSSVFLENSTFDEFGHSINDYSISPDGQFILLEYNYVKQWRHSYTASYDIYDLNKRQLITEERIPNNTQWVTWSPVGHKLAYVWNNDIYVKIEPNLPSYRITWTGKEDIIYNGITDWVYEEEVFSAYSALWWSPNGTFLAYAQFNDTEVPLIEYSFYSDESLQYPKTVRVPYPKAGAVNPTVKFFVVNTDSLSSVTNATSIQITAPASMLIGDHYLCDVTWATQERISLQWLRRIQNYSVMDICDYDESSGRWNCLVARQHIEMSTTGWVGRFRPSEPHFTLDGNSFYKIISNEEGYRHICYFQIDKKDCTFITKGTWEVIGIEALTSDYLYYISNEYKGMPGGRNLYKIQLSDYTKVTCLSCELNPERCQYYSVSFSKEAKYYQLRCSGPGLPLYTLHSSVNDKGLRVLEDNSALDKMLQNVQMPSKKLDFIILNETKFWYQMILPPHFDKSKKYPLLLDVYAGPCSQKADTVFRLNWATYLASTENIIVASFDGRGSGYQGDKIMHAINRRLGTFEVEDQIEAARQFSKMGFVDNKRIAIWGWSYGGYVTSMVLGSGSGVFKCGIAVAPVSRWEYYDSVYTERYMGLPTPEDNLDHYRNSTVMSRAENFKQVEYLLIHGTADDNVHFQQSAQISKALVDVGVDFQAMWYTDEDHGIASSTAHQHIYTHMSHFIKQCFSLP
SMILES,IC50 (Recombinant human DPP4),IC50 (Human recombinant FAP [1]),IC50 (recombinant human PREP),IC50 [2],further results
CS(=O)(=O)c1ccc(-c2ccc3c(C(=O)NCC(=O)N4CC(F)(F)C[C@H]4C#N)ccnc3c2)cc1,,,,,pIC50 (DPP4) (Recombinant human DPP4): <6; pIC50 (Activity) (Human recombinant FAP [1]): 9.1; pKD (Biacore) (Human recombinant FAP [3]; 1:1 Langmuir binding model): 10; HL [min] (Biacore) (Human recombinant FAP [3]; half-life): 37 min; pIC50 (PREP) (recombinant human PREP): <6; pIC50 (FACS) [2]: 8.5
N#C[C@@H]1CCCN1C(=O)CNC(=O)c1ccnc2cc(-c3ccc(C(=O)O)cc3)ccc12,> 1000 nM,2 nM,> 1000 nM,3.98 nM,
N#C[C@@H]1CCCN1C(=O)CNC(=O)c1cc[n+]([O-])c2ccccc12,,,,,pIC50 (DPP4) (Recombinant human DPP4): <6; pIC50 (Activity) (Human recombinant FAP [1]): 7.6; pIC50 (PREP) (recombinant human PREP): 6.3; pIC50 (FACS) [2]: 7.1; pIC50 (mouseFAP) (Recombinant mouse FAP): 7.5
Cc1nc(C(=O)[C@@H]2CCCN2C(=O)CNC(=O)c2ccnc3ccccc23)no1,,79.4 nM,1.26 nM,251 nM,IC50 (Recombinant mouse FAP; read-out: pIC50 (mouseFAP) (converted)): 126 nM
"N#C[C@@H]1CC(F)(F)CN1C(=O)CNC(=O)c1ccnc2ccc(OCCCN3CCN(C(=O)CN4CCN(CC(=O)O)CCN(CC(=O)O)CCN(CC(=O)O)CC4)CC3)cc12 [Compound 3BP-2929, reference compound]",,,,,HL (HEK-FAP cells): 276 ± 142 min

# Continued, in another order:
IC50 (Recombinant human DPP4),IC50 (Human recombinant FAP [1]),IC50 (recombinant human PREP),IC50 [2],SMILES,further results
> 1000 nM,1.58 nM,> 1000 nM,3.16 nM,N#C[C@@H]1CCCN1C(=O)CNC(=O)c1ccnc2ccc(-c3cccc(C(=O)O)c3)cc12,
> 1000 nM,1.58 nM,> 1000 nM,2.51 nM,N#C[C@@H]1CCCN1C(=O)CNC(=O)c1ccnc2cc(-c3cccc(C(=O)O)c3)ccc12,
